Data: patent US12486471B2, “Perfume formulation for delivery system” (FIRMENICH SA, priority 2019, dated 2025)

Experiment: Odor threshold concentration (Log T / Log ODT) by gas chromatograph sniff port with panelists
Design: species or system human
Experimental: “High impact perfume raw materials” should be understood as perfume raw materials having a Log T<−4. The odor threshold concentration of a chemical compound is determined in part by its shape, polarity, partial charges and molecular mass. For convenience, the threshold concentration is presented as the common logarithm of the threshold concentration, i.e., Log [Threshold] (“Log T”).
The odor threshold concentration of a perfuming compound is determined by using a gas chromatograph (“GC”). Specifically, the gas chromatograph is calibrated to determine the exact volume of the perfume oil ingredient injected by the syringe, the precise split ratio, and the hydrocarbon response using a hydrocarbon standard of known concentration and chain-length distribution. The air flow rate is accurately measured and, assuming the duration of a human inhalation to last 12 seconds, the sampled volume is calculated. […] To determine the threshold concentration, solutions are delivered to the sniff port at the back-calculated concentration. A panelist sniffs the GC effluent and identifies the retention time when odor is noticed. The average across all panelists determines the odor threshold concentration of the perfuming compound. The determination of odor threshold is described in more detail in C.

[1] = ingredient of Perfume oil B (Table 3)
[2] = ingredient of Perfume oil C (Table 5)
[3] = ingredient of Perfume oil D (Table 7)
[4] = ingredient of Perfume oil A (Table 1)

## C=CCCC(=O)C1=CCCC(C)(C)C1
[1]
  Log ODT: <−4
[2]
  Log ODT: <−4

## CC12CCC(CC1)C(C)(C)O2
[1]
  Log ODT: >−4
[2]
  Log ODT: >−4
[3]
  Log ODT: >−4

## COc1nccnc1CCCC(C)C
[1]
  Log ODT: <−4

## CC1(C)CC=C(CCC=O)CC1
[4]
  Log ODT: >−4

## CC(=O)/C=C/C1=C(C)CCCC1(C)C
[4]
  Log ODT: <−4

## 1-OXA-12-CYCLOHEXADECEN-2-ONE (A) + 1-OXA-13-CYCLOHEXADECEN-2-ONE (B)
[2]
  Log ODT: >−4

## 2-METHYLBUTYL SALICYLATE (A) + PENTYL SALICYLATE (B)
[4]
  Log ODT: >−4

## 3,5,6-TRIMETHYL-3-CYCLOHEXENE-1-CARBALDEHYDE (A) + 2,4,6-TRIMETHYL-3-CYCLOHEXENE-1-CARBALDEHYDE (B)
[2]
  Log ODT: >−4

## 3,7-DIMETHYL-2,6-NONADIENENITRILE (A) + 3,7-DIMETHYL-3,6-NONADIENENITRILE (B)
[2]
  Log ODT: >−4

## 3-(4-ETHYLPHENYL)-2,2-DIMETHYLPROPANAL (A) + 3-(2-ETHYLPHENYL)-2,2-DIMETHYLPROPANAL (B)
[1]
  Log ODT: >−4

## 10-UNDECENAL (A) + (9E)-9-UNDECENAL (B) + (9Z)-9-UNDECENAL (C)
[1]
  Log ODT: <−4
[2]
  Log ODT: <−4

## C/C=C/C(=O)[C@@H]1[C@@H](C)C=CCC1(C)C (racemic)
[4]
  Log ODT: <−4
[1]
  Log ODT: <−4

## CC(C)=CCCC(C)C=O (racemic)
[4]
  Log ODT: >−4
[1]
  Log ODT: >−4

## C=CC(C)CCCC(C)(C)O (racemic)
[4]
  Log ODT: >−4

## CC(C)CCCC(C)CCO (racemic)
[1]
  Log ODT: >−4

## C=CC(C)(CCC=C(C)C)OC(C)=O (racemic) [(+−)-1,5-DIMETHYL-1-VINYL-4-HEXENYL ACETATE]
[4]
  Log ODT: >−4
[2]
  Log ODT: >−4

## CC1=CCC(C(C)(C)S)CC1 (racemic) [(+−)-2-(4-METHYL-3-CYCLOHEXEN-1-YL)-2-PROPANETHIOL]
[1]
  Log ODT: <−4
[2]
  Log ODT: <−4

## CCCCCCCCCC(C)C=O (racemic) [(+−)-2-METHYLUNDECANAL]
[4]
  Log ODT: <−4
[1]
  Log ODT: <−4
[2]
  Log ODT: <−4
[3]
  Log ODT: <−4

## CC(C)c1cccc(C(C)CC=O)c1 (racemic) [(+−)-3-(3-ISOPROPYL-1-PHENYL)BUTANAL]
[1]
  Log ODT: <−4

## CCCCCCCC1CCC(=O)O1 (racemic) [(+−)-5-HEPTYLDIHYDRO-2(3H)-FURANONE]
[2]
  Log ODT: <−4

## CC/C=C(\C)C(O)CCCCC (racemic) [(+−)-(E)-4-METHYL-3-DECEN-5-OL]
[4]
  Log ODT: >−4
[1]
  Log ODT: >−4

## CCOC(=O)C(C)CC (racemic) [(+−)-ETHYL 2-METHYLBUTANOATE]
[4]
  Log ODT: >−4

## CCCCC[C@H]1C(=O)CC[C@@H]1CC(=O)OC (racemic) [METHYL 2-((1RS,2RS)-3-OXO-2-PENTYLCYCLOPENTYL)ACETATE]
[4]
  Log ODT: >−4
[2]
  Log ODT: >−4

## CC1=CCC2C[C@@H]1C2(C)C (single isomer, unassigned; (-))
[2]
  Log ODT: >−4

## c1ccc(Oc2ccccc2)cc1 [1,1′-OXYDIBENZENE]
[4]
  Log ODT: >−4

## COc1ccc(C)cc1 [1-METHOXY-4-METHYLBENZENE]
[4]
  Log ODT: >−4

## COc1ccc2ccccc2c1 [2-METHOXYNAPHTHALENE]
[2]
  Log ODT: <−4
[3]
  Log ODT: <−4

## CC(=O)OCCc1ccccc1 [2-PHENYLETHYL ACETATE]
[4]
  Log ODT: >−4

## CC1=CC2CC(C=O)C1CC2C(C)C (centres unmarked) [8-ISOPROPYL-6-METHYL-BICYCLO[2.2.2]OCT-5-ENE-2-CARBALDEHYDE]
[1]
  Log ODT: <−4
[3]
  Log ODT: <−4

## CC(=O)OCCC(C)CCC=C(C)C (centres unmarked) [37-DIMETHYL-6-OCTENYL ACETATE]
[2]
  Log ODT: >−4

## CC(=O)O[C@@H]1CC2CC[C@]1(C)C2(C)C [(1R,2R)-1,7,7-TRIMETHYL-BICYCLO[2.2.1]HEPT-2-YL ACETATE]
[2]
  Log ODT: >−4
[3]
  Log ODT: >−4

## COCCc1ccccc1 [(2-METHOXYETHYL)BENZENE]
[1]
  Log ODT: >−4

## CC/C=C\CCOC(C)=O [(Z)-3-HEXENYL ACETATE]
[2]
  Log ODT: >−4

## CC/C=C\CCOC(=O)C(C)C [(Z)-3-HEXENYL ISOBUTYRATE]
[2]
  Log ODT: >−4

## CC1(C)CCC[C@]2(C)[C@H]3CCO[C@]3(C)CC[C@@H]12 [(−)-(3AR,5AS,9AS,9BR)-3A,6,6,9A-TETRAMETHYLDODECAHYDRONAPHTHO[2,1-B]FURAN]
[1]
  Log ODT: <−4
[3]
  Log ODT: <−4

## CCCCCCCCCC(C)=O [Capsule 2-UNDECANONE, 2-UNDECANONE]
[1]
  Log ODT: >−4

## CCCCCCCCCC=O [DECANAL]
[3]
  Log ODT: >−4

## CCCCCCOC(=O)c1ccccc1O [HEXYL 2-HYDROXYBENZOATE]
[4]
  Log ODT: >−4

## CCCCCCOC(C)=O [HEXYL ACETATE]
[4]
  Log ODT: >−4

## CCCCCCCC=O [OCTANAL]
[3]
  Log ODT: >−4

## O=C1CCCCCCCCCCCCCCO1 [OXACYCLOHEXADECAN-2-ONE]
[2]
  Log ODT: >−4

## (1RS,2RS)-2,4-DIMETHYL-3-CYCLOHEXENE-1-CARBALDEHYDE (A) + (1RS,2SR)-2,4-DIMETHYL-3-CYCLOHEXENE-1-CARBALDEHYDE (B)
[4]
  Log ODT: >−4
[2]
  Log ODT: >−4

## (2RS,4SR)-4-METHYL-2-(2-METHYL-1-PROPEN-1-YL)TETRAHYDRO-2H-PYRAN (A) + (2RS,4RS)-4-METHYL-2-(2-METHYL-1-PROPEN-1-YL)TETRAHYDRO-2H-PYRAN (B)
[4]
  Log ODT: >−4
[1]
  Log ODT: >−4

## (2Z)-1,1-DIETHOXY-3,7-DIMETHYL-2,6-OCTADIENE (A) + (2E)-1,1-DIETHOXY-3,7-DIMETHYL-2,6-OCTADIENE (B)
[1]
  Log ODT: >−4
[3]
  Log ODT: >−4

## (+)-(3S)-3-[(1R)-4-METHYL-3-CYCLOHEXEN-1-YL]BUTANAL (A) + (+)-(3R)-3-[(1R)-4-METHYL-3-CYCLOHEXEN-1-YL]BUTANAL
[3]
  Log ODT: >−4

## (+−)-4-METHYLENE-2-PHENYLTETRAHYDRO-2H-PYRAN (A) + (+−)-4-METHYL-6-PHENYL-3,6-DIHYDRO-2H-PYRAN (B) + (+−)-4-METHYL-2-PHENYL-3,6-DIHYDRO-2H-PYRAN (C)
[1]
  Log ODT: <−4
[3]
  Log ODT: <−4

## (+−)-(3E)-3-METHYL-4-(2,6,6-TRIMETHYL-2-CYCLOHEXEN-1-YL)-3-BUTEN-2-ONE (A) + (+−)-(1E)-1-(2,6,6-TRIMETHYL-2-CYCLOHEXEN-1-YL)-1-PENTEN-3-ONE (B)
[2]
  Log ODT: <−4

## .ALPHA.-DIHYDROTERPINEOL (A) + BETA.-DIHYDROTERPINEOL (B)
[1]
  Log ODT: >−4

## TRICYCLO[5.2.1.0~2,6~]DEC-3-EN-8-YL ACETATE (A) + TRICYCLO[5.2.1.0~2,6~]DEC-4-EN-8-YL ACETATE (B)
[4]
  Log ODT: >−4
[1]
  Log ODT: >−4
